# Results: patent publication US8802597B2, “Herbicidal pyrimidines” (E I du Pont de Nemours and Company, priority 2003, dated 2014)
# Legend:
# Format in all cases: in vivo
# wild oat (Avena fatua) = assay: Test B postemergence
# Procedure, shortened: (§1)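 Plants treated pre- or postemergence were compared visually with controls after 13 to 15 days. Ratings ran from 0, no effect, to 100, complete control.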
# [1] = tested on: blackgrass (Alopecurus myosuroides); assay: Test B postemergence
# Procedure, shortened: as §1
# [2] = tested on: crabgrass (Digitaria sanguinalis); assay: Test B pre/postemergence
# Procedure, shortened: as §1
# [3] = tested on: pigweed (Amaranthus retroflexus); assay: Test B pre/postemergence
# Procedure, shortened: as §1
# [4] = tested on: wheat (Triticum aestivum); assay: Test B pre/postemergence
# Procedure, shortened: as §1
# corn (Zea mays) = assay: Test B pre/postemergence
# Procedure, shortened: as §1
# [5] = tested on: morningglory (Ipomoea coccinea); assay: Test B pre/postemergence
# Procedure, shortened: as §1
# [6] = tested on: cocklebur (Xanthium strumarium); assay: Test B pre/postemergence
# Procedure, shortened: as §1
# [7] = tested on: barnyardgrass (Echinochloa crus-galli); assay: Test B pre/postemergence
# Procedure, shortened: as §1
# [8] = tested on: Surinam grass (Brachiaria decumbens); assay: Test B pre/postemergence
# Procedure, shortened: as §1
# [9] = tested on: lambsquarters (Chenopodium album); assay: Test B pre/postemergence; settings: for Plant response rating, Lambsquarters: 500 g ai/ha
# Procedure, shortened: as §1
# [10] = tested on: giant foxtail (Setaria faberii); assay: Test B pre/postemergence
# Procedure, shortened: as §1
# [11] = tested on: velvetleaf (Abutilon theophrasti); assay: Test B pre/postemergence
# Procedure, shortened: as §1
# rice (Oryza sativa) = assay: Test B flooded paddy test; settings: Flood, 1000 g ai/ha; scale 0 to 100
# Procedure, shortened: (§2)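 Plants were grown to the 2-leaf stage before treatment, then kept in a greenhouse for 13 to 15 days. Injury was rated visually against untreated controls on a 0 to 100 scale, where 0 is no effect and 100 is complete control.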
# [12] = tested on: umbrella sedge (Cyperus difformis); assay: Test B flooded paddy test; settings: Flood, 1000 g ai/ha; scale 0 to 100
# Procedure, shortened: as §2
# [13] = tested on: barnyardgrass (Echinochloa crus-galli); assay: Test B flooded paddy test; settings: Flood, 1000 g ai/ha; scale 0 (no effect) to 100 (complete control)
# Procedure, shortened: as §2
# [14] = tested on: duck salad (Heteranthera limosa); assay: Test B flooded paddy test; settings: Flood, 1000 g ai/ha; scale 0 to 100
# Procedure, shortened: as §2
# [15] = 125 g ai/ha, scale 0 to 100 (0 no effect, 100 complete control)
# [16] = Postemergence, 125 g ai/ha, scale 0 to 100 (0 no effect, 100 complete control)
# [17] = Postemergence, 500 g ai/ha, scale 0 to 100
# [18] = Preemergence, 125 g ai/ha, scale 0 to 100 (0 no effect, 100 complete control)
# [19] = Preemergence, 500 g ai/ha, scale 0 to 100 (0 no effect, 100 complete control)
structure (smiles),measurement,setting,value
CC(=O)NN=Cc1nc(C2CC2)nc(N)c1Br [Compound 51],"Oat, Wild plant response rating",wild oat (Avena fatua); [15],20
same,"Plant response rating, Oat, Wild","wild oat (Avena fatua); 500 g ai/ha, scale 0 to 100",30
same,Blackgrass plant response rating,[1]; [15],20
same,"Plant response rating, Blackgrass","[1]; 500 g ai/ha, scale 0 to 100",30
same,Crabgrass plant response rating,[2]; [16],30
same,"Plant response rating, Crabgrass",[2]; [17],60
same,"Plant response rating, Crabgrass",[2]; [18],0
same,"Plant response rating, Crabgrass",[2]; [19],0
same,Pigweed plant response rating,[3]; [16],80
same,"Plant response rating, Pigweed",[3]; [17],90
same,"Plant response rating, Pigweed",[3]; [18],10
same,"Plant response rating, Pigweed",[3]; [19],70
same,Wheat plant response rating,[4]; [16],30
same,"Plant response rating, Wheat",[4]; [17],40
same,"Plant response rating, Wheat",[4]; [18],0
same,"Plant response rating, Wheat",[4]; [19],0
same,Corn plant response rating,corn (Zea mays); [16],0
same,"Plant response rating, Corn",corn (Zea mays); [17],0
same,"Plant response rating, Corn",corn (Zea mays); [18],0
same,"Plant response rating, Corn",corn (Zea mays); [19],0
same,Morningglory plant response rating,[5]; [16],80
same,"Plant response rating, Morningglory",[5]; [17],90
same,"Plant response rating, Morningglory",[5]; [18],0
same,"Plant response rating, Morningglory",[5]; [19],40
same,Cocklebur plant response rating,[6]; [16],80
same,"Plant response rating, Cocklebur",[6]; [17],90
same,"Plant response rating, Cocklebur",[6]; [18],0
same,"Plant response rating, Cocklebur",[6]; [19],20
same,Barnyardgrass plant response rating,[7]; [16],20
same,"Plant response rating, Barnyardgrass",[7]; [17],60
same,"Plant response rating, Barnyardgrass",[7]; [18],0
same,"Plant response rating, Barnyardgrass",[7]; [19],0
same,Surinam Grass plant response rating,[8]; [16],0
same,"Plant response rating, Surinam Grass",[8]; [17],40
same,"Plant response rating, Surinam Grass",[8]; [18],0
same,"Plant response rating, Surinam Grass",[8]; [19],0
same,Lambsquarters plant response rating,[9]; [16],80
same,"Plant response rating, Lambsquarters","[9]; Postemergence, scale 0 to 100",90
same,"Plant response rating, Lambsquarters","[9]; Preemergence, scale 0 to 100 (0 no effect, 100 complete control)",80
same,"Foxtail, Giant plant response rating",[10]; [16],0
same,"Plant response rating, Foxtail, Giant",[10]; [17],30
same,"Plant response rating, Foxtail, Giant",[10]; [18],0
same,"Plant response rating, Foxtail, Giant",[10]; [19],0
same,Velvetleaf plant response rating,[11]; [16],70
same,"Plant response rating, Velvetleaf",[11]; [17],80
same,"Plant response rating, Velvetleaf",[11]; [18],0
same,"Plant response rating, Velvetleaf",[11]; [19],0
same,"Plant response rating, Rice",rice (Oryza sativa),0
same,"Plant response rating, Sedge, Umbrella",[12],0
same,"Plant response rating, Barnyardgrass",[13],0
same,"Plant response rating, Ducksalad",[14],0
